Results from patent publication US12377044B2, “Method and device for transdermal delivery of parathyroid hormone using a microprojection array” (Panther Life Sciences Corporation, priority 2010, dated 2025).

Experiment: clinical
Conditions: female, human, in vivo, sc, 20 ug
Method: The microprojection array described herein was used to administer transdermally hPTH (1-34) to healthy human subjects. As a comparator, hPTH (1-34) was also administered subcutaneously to a healthy group of human subjects.
In this study, a microprojection array was prepared as detailed in Example 9 and inserted into an applicator-array assembly to form a transdermal delivery system, as described in Example 10. […] The delivery system was designed to deliver a systemic dose of hPTH (1-34) across the stratum corneum barrier layer of the skin upon activation of the applicator to deploy an array of microstructures causing the array of microstructures to penetrate the stratum corneum. In this study, two dose levels were administered via the transdermal delivery system, 32 μg hPTH (1-34) and 64 μg hPTH (1-34) (32 μg hPTH (1-34)×2). Subjects received these doses by applying the transdermal microneedle delivery system MicroCor® device containing the indicated amount of hPTH in the distal tips of the microneedles in the array to an abdominal site, and leaving the device in place for five (5) minutes. The comparator treatment (the commercial hPTH product known as Forteo®) was subcutaneously administered via injection into the abdominal wall at a dose of 20 μg. Blood samples were drawn at designated times and analyzed for hPTH concentration. […]

- half-life: 52 min
SMILES: CC[C@H](C)[C@H](NC(=O)[C@H](CCC(=O)O)NC(=O)[C@H](CO)NC(=O)[C@@H](NC(=O)[C@@H](N)CO)C(C)C)C(=O)N[C@@H](CCC(N)=O)C(=O)N[C@@H](CC(C)C)C(=O)N[C@@H](CCSC)C(=O)N[C@@H](Cc1cnc[nH]1)C(=O)N[C@@H](CC(N)=O)C(=O)N[C@@H](CC(C)C)C(=O)NCC(=O)N[C@@H](CCCCN)C(=O)N[C@@H](Cc1cnc[nH]1)C(=O)N[C@@H](CC(C)C)C(=O)N[C@@H](CC(N)=O)C(=O)N[C@@H](CO)C(=O)N[C@@H](CCSC)C(=O)N[C@@H](CCC(=O)O)C(=O)N[C@@H](CCCN=C(N)N)C(=O)N[C@H](C(=O)N[C@@H](CCC(=O)O)C(=O)N[C@@H](Cc1c[nH]c2ccccc12)C(=O)N[C@@H](CC(C)C)C(=O)N[C@@H](CCCN=C(N)N)C(=O)N[C@@H](CCCCN)C(=O)N[C@@H](CCCCN)C(=O)N[C@@H](CC(C)C)C(=O)N[C@@H](CCC(N)=O)C(=O)N[C@@H](CC(=O)O)C(=O)N[C@H](C(=O)N[C@@H](Cc1cnc[nH]1)C(=O)N[C@@H](CC(N)=O)C(=O)N[C@@H](Cc1ccccc1)C(=O)O)C(C)C)C(C)C [hPTH (1-34), human Parathyroid hormone (1-34)]
